How the values were obtained:
Assay type in all cases: in vivo
[1] = system: Rice (Oryza sativa); assay: Test Example 3 paddy field treatment, crop phytotoxicity; conditions: Table 6, paddy field treatment, transplanted rice, active ingredient 1 kg per hectare, 21st day after dropping, index 0-5
Procedure, shortened: (§1)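 Scoring used a 0–5 scale of herbicidal effect or phytotoxicity, from <10% to ≥90%, taken 21 days after treatment. Treatment was 1 kg a.i./ha as diluted wettable powder dripped onto 4 cm-deep flooded pots sown with the weeds, 10 days after transplanting two-leaf Koshihikari rice.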

[2] = system: Stellaria media; assay: Test Example 1 upland field foliage treatment; conditions: Table 4, upland field foliage treatment, index 0-5
Procedure, shortened: (§2)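 A leaf-surface application at an active-ingredient rate of 1 kg per hectare was made to 14-day-old plants in upland soil. Evaluation followed 21 days later using a six-grade scale, where grade 5 means at least 90% kill or phytotoxicity.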

[3] = system: Setaria viridis; assay: Test Example 1 upland field foliage treatment; conditions: Table 4, upland field foliage treatment, index 0-5
Procedure, shortened: as §2

[4] = system: Chenopodium album; assay: Test Example 1 upland field foliage treatment; conditions: Table 4, upland field foliage treatment, index 0-5
Procedure, shortened: as §2

[5] = system: Digitaria adscendens; assay: Test Example 1 upland field foliage treatment; conditions: Table 4, upland field foliage treatment, index 0-5
Procedure, shortened: as §2

[6] = system: wheat (Triticum aestivum); assay: Test Example 2 upland soil treatment, crop phytotoxicity; conditions: Table 5, upland soil treatment, index 0-5
Procedure, shortened: (§3)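 Dose of 1 kg active ingredient per hectare, given as diluted wettable powder to the soil surface the day after sowing in upland soil (~1 cm cover). Effect rated 21 days on: 5 for ≥90%, 4 for 70–<90%, down to 0 for <10%.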

[7] = system: soybean (Glycine max); assay: as above; conditions: Table 5, upland soil treatment, index 0-5
Procedure, shortened: as §3

[8] = system: wheat (Triticum aestivum); assay: Test Example 1 upland field foliage treatment, crop phytotoxicity; conditions: Table 4, upland field foliage treatment, index 0-5
Procedure, shortened: as §2

[9] = system: soybean (Glycine max); assay: as above; conditions: Table 4, upland field foliage treatment, index 0-5
Procedure, shortened: as §2

[10] = system: Stellaria media; assay: Test Example 2 upland soil treatment; conditions: Table 5, upland soil treatment, index 0-5
Procedure, shortened: as §3

[11] = system: Setaria viridis; assay: Test Example 2 upland soil treatment; conditions: Table 5, upland soil treatment, index 0-5
Procedure, shortened: as §3

[12] = system: Chenopodium album; assay: Test Example 2 upland soil treatment; conditions: Table 5, upland soil treatment, index 0-5
Procedure, shortened: as §3

[13] = system: Digitaria adscendens; assay: Test Example 2 upland soil treatment; conditions: Table 5, upland soil treatment, index 0-5
Procedure, shortened: as §3

[14] = system: Scirpus juncoides; assay: Test Example 3 paddy field treatment; conditions: Table 6, paddy field treatment, active ingredient 1 kg per hectare, 21st day after dropping, index 0-5
Procedure, shortened: as §1

[15] = system: Monochoria vaginalis; assay: Test Example 3 paddy field treatment; conditions: Table 6, paddy field treatment, active ingredient 1 kg per hectare, 21st day after dropping, index 0-5
Procedure, shortened: as §1

[16] = system: Ammannia multiflora; assay: Test Example 3 paddy field treatment; conditions: Table 6, paddy field treatment, active ingredient 1 kg per hectare, 21st day after dropping, index 0-5
Procedure, shortened: as §1

[17] = system: Echinochloa crusgalli; assay: Test Example 3 paddy field treatment; conditions: Table 6, paddy field treatment, active ingredient 1 kg per hectare, 21st day after dropping, index 0-5
Procedure, shortened: as §1

CON=C(Cn1cc(C)c(-c2ccccc2)n1)C(=O)N1CCOCC1 [Compound 120]
Herbicidal activity (phytotoxicity) OS [1]: 0 (herbicidal effect of not less than 0% and less than 10%, or phytotoxicity of 0% or more and less than 10%) | Herbicidal activity SM: Stellaria media [2]: 4 (herbicidal effect of not less than 70% and less than 90%, or phytotoxicity of 70% or more and less than 90%) | Herbicidal activity SV: Setaria viridis [3]: 4 (herbicidal effect of not less than 70% and less than 90%, or phytotoxicity of 70% or more and less than 90%) | Herbicidal activity CA: Chenopodium album [4]: 5 (herbicidal effect of not less than 90%, or phytotoxicity of 90% or more) | Herbicidal activity DA: Digitaria adscendens [5]: 4 (herbicidal effect of not less than 70% and less than 90%, or phytotoxicity of 70% or more and less than 90%) | Herbicidal activity (phytotoxicity) TA: Wheat (Triticum aestivum) [6]: 0 (herbicidal effect of not less than 0% and less than 10%, or phytotoxicity of 0% or more and less than 10%) | Herbicidal activity (phytotoxicity) GM: Soybean (Glycine max) [7]: 0 (herbicidal effect of not less than 0% and less than 10%, or phytotoxicity of 0% or more and less than 10%) | Herbicidal activity (phytotoxicity) TA: Wheat (Triticum aestivum) [8]: 0 (herbicidal effect of not less than 0% and less than 10%, or phytotoxicity of 0% or more and less than 10%) | Herbicidal activity (phytotoxicity) GM: Soybean (Glycine max) [9]: 0 (herbicidal effect of not less than 0% and less than 10%, or phytotoxicity of 0% or more and less than 10%) | Herbicidal activity SM: Stellaria media [10]: 4 (herbicidal effect of not less than 70% and less than 90%, or phytotoxicity of 70% or more and less than 90%) | Herbicidal activity SV: Setaria viridis [11]: 3 (herbicidal effect of not less than 50% and less than 70%, or phytotoxicity of 50% or more and less than 70%) | Herbicidal activity CA: Chenopodium album [12]: 4 (herbicidal effect of not less than 70% and less than 90%, or phytotoxicity of 70% or more and less than 90%) | Herbicidal activity DA: Digitaria adscendens [13]: 4 (herbicidal effect of not less than 70% and less than 90%, or phytotoxicity of 70% or more and less than 90%) | Herbicidal activity SJ [14]: 3 (herbicidal effect of not less than 50% and less than 70%, or phytotoxicity of 50% or more and less than 70%) | Herbicidal activity MV [15]: 4 (herbicidal effect of not less than 70% and less than 90%, or phytotoxicity of 70% or more and less than 90%) | Herbicidal activity AM [16]: 4 (herbicidal effect of not less than 70% and less than 90%, or phytotoxicity of 70% or more and less than 90%) | Herbicidal activity EC [17]: 3 (herbicidal effect of not less than 50% and less than 70%, or phytotoxicity of 50% or more and less than 70%)

CON=C(Cn1cc(C)c(-c2ccccc2)n1)C(=O)N1CCSCC1 [Compound 122]
Herbicidal activity (phytotoxicity) OS [1]: 0 (herbicidal effect of not less than 0% and less than 10%, or phytotoxicity of 0% or more and less than 10%) | Herbicidal activity SM: Stellaria media [2]: 4 (herbicidal effect of not less than 70% and less than 90%, or phytotoxicity of 70% or more and less than 90%) | Herbicidal activity SV: Setaria viridis [3]: 4 (herbicidal effect of not less than 70% and less than 90%, or phytotoxicity of 70% or more and less than 90%) | Herbicidal activity CA: Chenopodium album [4]: 4 (herbicidal effect of not less than 70% and less than 90%, or phytotoxicity of 70% or more and less than 90%) | Herbicidal activity DA: Digitaria adscendens [5]: 4 (herbicidal effect of not less than 70% and less than 90%, or phytotoxicity of 70% or more and less than 90%) | Herbicidal activity (phytotoxicity) TA: Wheat (Triticum aestivum) [6]: 0 (herbicidal effect of not less than 0% and less than 10%, or phytotoxicity of 0% or more and less than 10%) | Herbicidal activity (phytotoxicity) GM: Soybean (Glycine max) [7]: 0 (herbicidal effect of not less than 0% and less than 10%, or phytotoxicity of 0% or more and less than 10%) | Herbicidal activity (phytotoxicity) TA: Wheat (Triticum aestivum) [8]: 0 (herbicidal effect of not less than 0% and less than 10%, or phytotoxicity of 0% or more and less than 10%) | Herbicidal activity (phytotoxicity) GM: Soybean (Glycine max) [9]: 0 (herbicidal effect of not less than 0% and less than 10%, or phytotoxicity of 0% or more and less than 10%) | Herbicidal activity SM: Stellaria media [10]: 4 (herbicidal effect of not less than 70% and less than 90%, or phytotoxicity of 70% or more and less than 90%) | Herbicidal activity SV: Setaria viridis [11]: 3 (herbicidal effect of not less than 50% and less than 70%, or phytotoxicity of 50% or more and less than 70%) | Herbicidal activity CA: Chenopodium album [12]: 4 (herbicidal effect of not less than 70% and less than 90%, or phytotoxicity of 70% or more and less than 90%) | Herbicidal activity DA: Digitaria adscendens [13]: 3 (herbicidal effect of not less than 50% and less than 70%, or phytotoxicity of 50% or more and less than 70%) | Herbicidal activity SJ [14]: 3 (herbicidal effect of not less than 50% and less than 70%, or phytotoxicity of 50% or more and less than 70%) | Herbicidal activity MV [15]: 4 (herbicidal effect of not less than 70% and less than 90%, or phytotoxicity of 70% or more and less than 90%) | Herbicidal activity AM [16]: 4 (herbicidal effect of not less than 70% and less than 90%, or phytotoxicity of 70% or more and less than 90%) | Herbicidal activity EC [17]: 4 (herbicidal effect of not less than 70% and less than 90%, or phytotoxicity of 70% or more and less than 90%)

Reference: patent US7192906B2, “Substituted pyrazole derivatives, production process thereof, and herbicide compositions containing the derivatives” (SDS Biotech K.K., priority 2001, dated 2007)
